In PubChem BioAssay (NCI) one finds TGI data, which are given here for 16 compounds.

Holding throughout (test): NCI anticancer screen, dose series, 48 h
Test [1] concerns 786-0 renal.
The subject of test [2] is MOLT-4 leukemia.
The subject of test [3] is SNB-75 CNS.
Test [4] relates to SF-295 CNS.
For test [5], the system named is K-562 leukemia.
The test system of test [6] is OVCAR-3 ovarian.
For test [7], the system named is HT29 colon.
Test [8] has as its system SR leukemia.
Test [9] deals with RXF 393 renal.
For test [10], the system named is CAKI-1 renal.
Test [11] deals with SNB-19 CNS.
The test system of test [12] is U251 CNS.
Test [13] relates to MDA-MB-435.
Test [14] deals with UO-31 renal.
For test [15], the system named is SW-620 colon.
Test [16] relates to HCT-116 colon.
For test [17], the system named is PC-3 prostate.
The subject of test [18] is MDA-MB-231 breast.

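Results reflect a 48-hour exposure of cells in 96-well plates to compound at five concentrations. TGI is the concentration that stops growth completely.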

On to `CC1(C)C(=O)C2(OS(=O)(=O)C(F)(F)F)CCC1C2` (stereo not drawn), for which the TGI in test [1], in [2], in test [3], in test [4], in [5] and in [6] was greater than 100 µM each time. Besides, the TGI in [7], in [8], in [9], in test [10], in test [11] and in test [12] was greater than 100 µM in each case. In addition, the TGI in test [13], in test [14], in [15], in test [16], in test [17] and in test [18] was greater than 100 µM in each case.

As to `CC1(C)C[C@H](O)[C@H](O)[C@]23C(=O)O[C@H](O)[C@H]2C(C=O)=CC[C@@H]13`, the TGI in test [1], in test [2], in [3], in test [4], in test [5] and in [6] was greater than 100 µM in each case. Besides, the TGI in test [7], in [8], in test [9], in test [10], in test [11] and in test [12] was greater than 100 µM each time. Moreover, the TGI in test [13], in test [14], in test [15], in test [16], in test [17] and in test [18] was greater than 100 µM throughout.

`CSc1nncc2[nH]cnc12`: the TGI in test [1], in test [2], in [3], in test [4], in [5] and in test [6] was greater than 100 µM in each case. In addition, the TGI in test [7], in test [8], in test [9], in test [10], in test [11] and in test [12] was greater than 100 µM each time. The TGI in [13], in test [14], in test [15], in test [16], in [17] and in test [18] was greater than 100 µM throughout.

Regarding `O=C(N/N=C\c1ccc([N+](=O)[O-])cc1)c1ccccc1Nc1ccccc1C(=O)N/N=C/c1ccc([N+](=O)[O-])cc1`, the TGI in test [1], in test [2], in test [3], in test [4], in test [5] and in [6] was greater than 100 µM in each case. The TGI in test [7], in test [8], in [9], in test [10], in [11] and in test [12] was greater than 100 µM each time. Besides, the TGI in test [13] is greater than 100 µM; in test [14] it was greater than 100 µM; in test [15], greater than 100 µM; in [16], greater than 100 µM; in test [17], greater than 100 µM; in test [18], 95.1 µM.

With `Nc1nc(N)c2nnn(C[C@H]3CC[C@@H](CO)C3)c2n1`, the TGI in test [1], in test [2], in test [3], in test [4], in test [5] and in test [6] was greater than 100 µM in each case. Also, the TGI in [7], in test [8], in [9], in test [10], in test [11] and in test [12] was greater than 100 µM throughout. Also, the TGI in test [13], in test [14], in test [15], in [16], in test [17] and in test [18] was greater than 100 µM each time.

With `COc1cc2c3c(n(Cc4ccccc4)c(=O)c2cc1OC)-c1ccccc1C3=O`, the TGI in test [1], in test [2], in test [3], in [4], in test [5] and in [6] was greater than 100 µM in each case. In addition, the TGI in test [7], in [8], in test [9], in test [10], in test [11] and in test [12] was greater than 100 µM throughout. The TGI in test [13], in [14], in test [15], in [16], in test [17] and in test [18] was greater than 100 µM in each case.

Consider `COc1cc2c(cc1OC)C(Cc1ccccc1CCCl)=NCC2`, for which the TGI in test [1], in [2], in test [3], in test [4], in test [5] and in [6] was greater than 100 µM throughout. The TGI in test [7], in [8], in [9], in test [10], in [11] and in [12] was greater than 100 µM in each case. In addition, the TGI in [13], in [14], in test [15], in [16], in [17] and in test [18] was greater than 100 µM in each case.

On to `CC(C)(C)OC(=O)NC(Cc1ccc(OCc2ccccc2)cn1)C(=O)N1CCSCC1` (stereo not drawn), for which the TGI is greater than 100 µM in test [1]; 59.1 µM in test [2]; 76.5 µM in test [3]; greater than 100 µM in [4]; greater than 100 µM in test [5]; greater than 100 µM in test [6]. The TGI was greater than 100 µM in [7]; 75.3 µM in test [8]; 88.5 µM in [9]; greater than 100 µM in test [10]; greater than 100 µM in [11]; greater than 100 µM in test [12]. In addition, the TGI in test [13] was greater than 100 µM; in test [14], greater than 100 µM; in test [15], greater than 100 µM; in test [16], greater than 100 µM; in [17], 98.9 µM; in [18], greater than 100 µM.

Regarding `CC1=C(C(=O)NCC(C)O)CC(C(=O)NCC(C)O)=C(C)N1` (stereo not drawn), the TGI in [1], in [2], in test [3], in test [4], in [5] and in test [6] was greater than 100 µM each time. For the same compound, the TGI in test [7], in test [8], in [9], in [10], in test [11] and in test [12] was greater than 100 µM each time. Also, the TGI in test [13], in [14], in test [15], in [16], in [17] and in test [18] was greater than 100 µM in each case.

`CC(=O)N1N=C(N)CC1=O`: the TGI in test [1], in [2], in test [3], in [4], in [5] and in test [6] was greater than 100 µM in each case. Also, the TGI in [7], in test [8], in test [9], in test [10], in test [11] and in test [12] was greater than 100 µM each time. Besides, the TGI in test [13], in test [14], in [15], in test [16], in [17] and in [18] was greater than 100 µM each time.

Regarding `OCCN=C1c2ccccc2C2C(c3ccccc31)C1c3ccccc3C(=NCCO)c3ccccc3C21` (stereo not drawn), the TGI in test [1] stood at 47.2 µM; in test [2], 27.6 µM; in test [3] it was 65.9 µM; in [4] it was 30.6 µM; in [5] it was 40.2 µM; in test [6], 40.3 µM. Also, the TGI in test [7] came out at 34.8 µM; in test [8], 28.9 µM; in test [9], 51.8 µM; in test [10], 39.5 µM; in test [11] it was 41.4 µM; in test [12], 41.3 µM. For the same compound, the TGI is 40.9 µM in test [13]; 32.6 µM in test [14]; greater than 100 µM in test [15]; 30.3 µM in [16]; 53.8 µM in [17]; 31.4 µM in [18].

Consider `O=C(OCC1CCCN2CCCCC12)c1ccncc1` (stereo not drawn), for which the TGI in test [1], in test [2], in [3], in test [4], in test [5] and in test [6] was greater than 100 µM in each case. Also, the TGI in test [7], in [8], in test [9], in [10], in test [11] and in [12] was greater than 100 µM each time. The TGI in test [13], in [14], in [15], in [16], in [17] and in test [18] was greater than 100 µM each time.

For the compound `CSc1ccc(/C=C2\N=C(c3ccccc3)N(c3nc4c(Cl)cc(Cl)cc4s3)C2=O)cc1`, the TGI in test [1] was greater than 100 µM; in [2], 49.5 µM; in [3] it was 62 µM; in test [4], 79.7 µM; in test [5], greater than 100 µM; in [6] it was 40 µM. Besides, the TGI in test [7] is 46.4 µM; in test [8], 50.3 µM; in [9], 67.5 µM; in test [10] it was greater than 100 µM; in test [11], greater than 100 µM; in test [12], 37.3 µM. Also, the TGI in [13] is 43.2 µM; in test [14], 47.9 µM; in test [15], greater than 100 µM; in test [16], 41.5 µM; in test [17], 43.3 µM; in [18], 62.5 µM.

For the compound `CCCC#CC(O)(C(=O)OC1CCN(C)CC1)C1CCCCC1` (stereo not drawn), the TGI in test [1], in test [2], in [3], in [4], in [5] and in [6] was greater than 100 µM in each case. The TGI in test [7], in test [8], in test [9], in test [10], in test [11] and in [12] was greater than 100 µM each time. Also, the TGI in test [13], in [14], in test [15], in test [16], in test [17] and in test [18] was greater than 100 µM throughout.

For `Nn1c(SCC(=O)NCc2ccccc2)nc2ccccc2c1=O`, the TGI in test [1] was greater than 100 µM; in [2] it was 49.5 µM; in test [3] it was greater than 100 µM; in [4], greater than 100 µM; in [5], greater than 100 µM; in test [6] it was greater than 100 µM. Also, the TGI was greater than 100 µM in test [7]; 69 µM in test [8]; greater than 100 µM in [9]; greater than 100 µM in test [10]; greater than 100 µM in test [11]; greater than 100 µM in test [12]. Besides, the TGI is greater than 100 µM in test [13]; greater than 100 µM in test [14]; greater than 100 µM in test [15]; 93.1 µM in test [16]; greater than 100 µM in test [17]; greater than 100 µM in [18].

Regarding `NCCCc1c(-c2ccccc2)nc(N)[nH]c1=O`, the TGI in [1], in [2], in [3], in test [4], in [5] and in test [6] was greater than 100 µM each time. For the same compound, the TGI in test [7], in test [8], in test [9], in test [10], in [11] and in test [12] was greater than 100 µM in each case. For the same compound, the TGI in test [13], in test [14], in test [15], in test [16], in test [17] and in test [18] was greater than 100 µM in each case.
